According to PubChem BioAssay AID179 (DTP/NCI, 2004):
Where “and” joins values, the source holds several entries; their conditions need not be identical. Equal entries are not always repeated. Calls of active or inactive are those of the source.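 Rule for the calls: active = compounds giving half or more protection of infected cells from virus-caused growth loss, again on retest; inactive = the rest.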 Where a SMILES comes first, the peptide text is derived from it.

System: CEM cells HIV-1 protection, formazan growth assay
Experiment: NCI AIDS Antiviral Assay
Details: for IC50: measured here: growth of uninfected CEM cells
Summary of the method: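 Protection of CEM cells against HIV-1 was scored from cell growth (soluble formazan) across five concentrations, with parallel uninfected cells. Lack of protection may reflect toxicity.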

Row | Structure (SMILES) | EC50 [µM] | IC50 | outcome
1 | COC(=O)C(CC(C)=O)CS(=O)(=O)CC(=O)C(=O)Nc1cccc([N+](=O)[O-])c1 (stereo not given) | > 162 | > 162 µM | 
2 | COc1ccc(/C=c2\sc3n(c2=O)C(N)=C(C#N)C(c2ccc(OC)cc2)C=3c2nc3ccccc3[nH]2)cc1 (stereo not given) | > 7.08 | > 7.08 µM | 
3 | O=[N+]([O-])c1ccc([I+]c2ccccc2)cc1 | > 200 | 2.57 µM | 
4 | CNNC1=NS(=O)(=O)c2cc(C)c(Cl)cc2S1 | > 200 | > 200 µM | 
5 | O=C(c1nc2ccc(Cl)cc2[nH]c1=O)C(O)c1cccc([N+](=O)[O-])c1 (stereo not given) | > 186 | 12 µM | 
6 | [O-]c1on[n+](-c2ccccc2)c1-c1ccccc1 | > 151 | 74.1 µM | 
7 | COc1cccc(/C=N\NC(=O)C(C)SC(C)C(=O)N/N=C/c2cccc(OC)c2)c1 (stereo not given) |  |  | inactive
8 | COC(=O)C1=COC(C)C2Cn3ccc4c5ccccc5nc-4c3CC12 (stereo not given) | > 129 | 75.9 µM | 
9 | COC1(OC)N=C(N)C2(C#N)C3(C(=O)N(C(C)C)N=C3C)C12C#N (stereo not given) | > 200 | > 200 µM | 
10 | Cc1oc2cc(O)ccc2c(=O)c1-c1ccccc1Br | > 200 | 16.6 µM | 
11 | COC(=O)CN1Cc2cc(C)cc(c2O)CN(CC(=O)OC)Cc2cc(C)cc(c2O)CN(CC(=O)OC)Cc2cc(C)cc(c2O)C1 | > 200 | 19.5 µM | 
12 | OCC1OC(n2ccc3cnccc32)CC1O (stereo not given) |  |  | inactive
13 | CCOC(=O)C(C(CC(=O)OC)NC(=O)OCc1ccccc1)C1(C)OCCO1 (stereo not given) | > 251 | > 251 µM | 
14 | COc1cc2oc3cc(OC)c(OC)c(CC=C(C)C)c3c(=O)c2c(O)c1CC=C(C)C | > 30.9 | > 30.9 µM | 
15 | O=C(NS(=O)(=O)Nc1ccccc1)OCc1ccccc1 | > 200 | > 200 µM | 
16 | C=CCC(C(=N)C(C#N)(CC=C)C1=CCCCC1)C1=CCCCC1 (stereo not given) | > 97.7 | 81.3 µM | 
17 | CC1=C(O)C(=O)C=C2C1=CC=C1[C@@]2(C)CC[C@@]2(C)C3C[C@@H](C)C(=O)[C@@H](O)[C@]3(C)CC[C@]12C (stereo not given in full) | > 1.26 | 0.2 µM | 
18 | Cn1c2ccccc2c2cc(N3CCCC3)c3c(c21)C(=O)N(c1ccccc1)C3=O | > 200 | > 200 µM | 
19 | Brc1ccc2nncc(N3CC3)c2c1 |  |  | inactive
20 | Cc1ccc(-c2c(C#N)c(-c3ccccc3)n(NS(=O)(=O)c3ccc(C)cc3)c(=O)c2C#N)cc1 | > 200 | 67.6 µM | 
21 | CC1=NN(C(=O)Cc2ccccc2)C(=O)/C1=C\c1ccco1 | > 64.6 | > 64.6 µM | 
22 | CC1COS(=O)(=O)CS(=O)(=O)O1 (stereo not given) | > 1150 | > 1150 µM | 

Row | Structure (SMILES) | EC50 [µM] | IC50 | outcome
23 | O=C(n1c(=O)n(-c2ccc([N+](=O)[O-])cc2)c(=O)n1C(=O)C(Cl)(Cl)Cl)C(Cl)(Cl)Cl | > 200 | > 200 µM | 
24 | O=C1C2CCCC3CCCC(C(=O)N1NC1CCCCC1)C32 (stereo not given) | > 200 | 107 µM | 
25 | c1ccc(-c2cn3nc4ccccc4c3nn2)cc1 | > 200 | > 200 µM | 
26 | O=C1NCCN1C(=O)Nc1ccc(S(=O)(=O)c2ccc([N+](=O)[O-])cc2)cc1 | > 200 | 74.1 µM | 
27 | CN(N=O)C(=O)N(N)CCCCC(NC(=O)OCc1ccccc1)C(=O)OCc1ccccc1 (stereo not given) | > 39.8 | > 39.8 µM | 
28 | N#Cc1sc2nc3c(c(-c4ccccc4)c2c1N)CCCC3 |  |  | inactive
29 | Nc1nc2n[nH]nc2c(=O)[nH]1 | > 89.1 | 0.302 µM | 
30 | C=CCCCCCCCCC(=O)ON(Cc1ccc(O)c(OC)c1)C(=O)C(F)(F)F | > 200 | > 200 µM | 
31 | CCCc1cc(=O)oc2c3c(c4c(c12)OC(C)(C)C=C4)O[C@@H](C)[C@H](C)[C@@H]3O[Si](C)(C)C(C)(C)C | > 200 | > 200 µM | 
32 | O=C1c2ccccc2-c2ccccc2C(=O)C1(Br)Br |  |  | inactive
33 | O=[N+]([O-])c1ncn(C2OC(CO)C(O)C2O)c1S (stereo not given) | > 200 | > 200 µM | 
34 | O=C(/C(=C/c1cccs1)c1ccccc1)c1ccccc1 | > 200 | > 200 µM | 
35 | COC(=O)[C@@]12C=CC(=O)[C@H]3C[C@@H](C(C(C)C)C1)[C@]32OC (stereo not given in full) |  |  | inactive
36 | O=C1C2=Cc3ccccc3OC2(O)Oc2cc3ccccc3cc21 (stereo not given) | > 200 | 69.2 µM | 
37 | O=c1c2ccccc2[se]n1-c1ccc(Cl)cc1 | 8.13 | 23.4 µM | 
38 | C1C[S+]2CC[S+]1CC2 | > 200 | > 200 µM | 
39 | C=C1C(OC(=O)c2ccccc2)C2[C@@H](OC(=O)CC)[C@@H](C)C[C@]2(O)C(=O)[C@@H](C)/C=C/C(C)(C)C(=O)C(O)[C@H]1OC(=O)C(C)C (stereo not given in full) |  |  | inactive
40 | COc1ccc(C)cc1C(=C=C=C=C(c1cc(C)ccc1OC)c1ccccc1OCc1ccccc1)c1ccccc1OCc1ccccc1 | > 44.7 | 36.3 µM | 
41 | Nc1scc2[nH]c3ccccc3[n+]12 | > 200 | 15.5 µM | 
42 | CC(C)(C)[Si](C)(C)OCC1OC(n2ccc(=O)[nH]c2=O)C(O[Si](C)(C)C(C)(C)C)[C@@]12N[C@H](C(N)=O)CS2=O (stereo not given in full) | > 200 | 12.3 µM | 
43 | CCOc1ccc(NC(=O)/C(=N\NC(C)(C)C)C2C(=O)Nc3ccccc3S2=O)cc1 (stereo not given) | > 42.7 | > 42.7 µM | 
44 | CC1(C(=O)O)OC12CCCCC2 (stereo not given) | > 200 | > 200 µM | 

Row | Structure (SMILES) | EC50 [µM] | IC50 | outcome
45 | Cc1ccc2nc(NC(=S)NCCCCNC(=S)Nc3ccc4cc(C)ccc4n3)ccc2c1 | > 10.7 | > 10.7 µM | 
46 | COC(=O)C1Cc2c([nH]c3ccccc23)[C@H](CC(C)C)N1 (stereo not given in full) |  |  | inactive
47 | c1ccc(CN2COc3c(ccc4ccccc34)C2)cc1 | > 200 | 55 µM | 
48 | O=C(N/C(=C\c1ccc2c(c1)OCO2)c1nc2ccccc2[nH]1)c1ccccc1 | > 26.3 | > 26.3 µM | 
49 | CC1CCCN(CC(O)CN2CCN(CC(O)CN3CCCC(C)C3)C(C)C2)C1 (stereo not given) | > 316 | > 316 µM | 
50 | CC(C)OC(=O)C1Cc2c([nH]c3ccccc23)C(c2ccccc2)N1 (stereo not given) |  |  | inactive
51 | C=C1C2CC3CCC2C(OC(=O)c2ccccc2C(=O)O)C13 (stereo not given) | > 200 | > 200 µM | 
52 | CC(=O)N1C(OCc2ccccc2)CCN1c1ccccc1 (stereo not given) | > 200 | > 200 µM | 
53 | CC(CC(=O)N(C)[C@H](C[C@@H](C)C(Cl)(Cl)Cl)c1nccs1)C(Cl)Cl (stereo not given in full) |  |  | inactive
54 | Cc1cn(C2CC(N=[N+]=[N-])C(CO)O2)c(=O)nc1N (stereo not given) | > 200 | > 200 µM | 
55 | Oc1[nH]c2ccccc2c1N=NC(=S)N1CCCCCC1 | > 200 | 1.32 µM | 
56 | COc1cc2ccccc2cc/c1=N\O | > 200 | 41.7 µM | 
57 | Cc1cc(N=Nc2ccccc2)ccc1NCS(=O)(=O)O | > 200 | 117 µM | 
58 | Cc1ccc(-c2cc(-c3ccccc3)[s+]c3ccc(C)cc23)cc1 | > 200 | 6.03 µM | 
59 | Cc1oc2nc(N(C)C)n3c(C)nnc3c2c1C |  |  | inactive
60 | C=CCNC(=O)N(CCC)CCCCC(NC(C)=O)C(=O)NCc1ccccc1 (stereo not given) | > 89.1 | > 89.1 µM | 
61 | CC12C3CC4C5CC(C(C53)[C@@H]1NCc1ccccc1)C42 (stereo not given in full) | > 437 | 77.6 µM | 
62 | C#CCN(Cc1ccc2nc(-c3ccccc3)c(N)nc2c1)c1cc(OC)c(OC)c(OC)c1 | > 21.9 | > 21.9 µM | 
63 | OCC1NCC(O)C(O)C1O (stereo not given) | > 200 | > 200 µM | 
64 | O=c1oc2ccccc2c(O)c1C(c1ccc(OCc2ccccc2)cc1)c1c(O)c2ccccc2oc1=O | > 200 | 30.2 µM | 
65 | O=S1(=O)c2ccccc2C(O)(c2ccccc2)c2ccccc21 | > 200 | 123 µM | 
66 | O=C(CC1(O)C(=O)Nc2ccc([N+](=O)[O-])cc21)c1ccc2ccccc2c1 (stereo not given) | > 100 | > 100 µM | 

Row | Structure (SMILES) | EC50 [µM] | IC50 | outcome
67 | C=C1C(=O)[C@@]23CC1C(O)[C@@H](OC(C)=O)[C@@H]2C1(C)C(OC(C)=O)C[C@@H](OC(C)=O)C(C)(C)[C@@H]1C[C@H]3OC(C)=O (stereo not given in full) | > 200 | 0.851 µM | 
68 | O=C(CC(C(=O)c1ccsc1)c1cccs1)c1ccccc1 (stereo not given) | > 200 | 49 µM | 
69 | CC(C)(N=NC(C)(C)C(=N)N)C(=N)N | > 200 | > 200 µM | 
70 | CCOC(=O)c1c(-c2ccc(O)c(OC)c2)c(C#N)c(=S)n(C2OC(CO)C(O)C(O)C2O)c1-c1ccccc1 (stereo not given) | > 200 | > 200 µM and 117 µM | 
71 | C/C(Cc1[nH]nc2c1c(=O)oc1ccc3ccccc3c12)=N\N | > 200 | 12.6 µM | 
72 | Cc1ccc(C(N)=O)cc1N=NN(C)C | > 457 | 269 µM | 
73 | c1ccc2c(c1)ccn2CCc1c[nH]c2ccccc12 | > 200 | > 200 µM | 
74 | Nn1c(=O)[nH]c2ncn(Cc3ccccc3)c2c1=O | > 200 | > 200 µM | 
75 | CC(=O)OC1COC(OC2CC3(C)C4CC=C5C(C=C(O)CC5(C)C)[C@]4(C)CC[C@]3(C)C2C(C)(O)C(=O)/C=C/C(C)(C)O)C(OC(C)=O)C1O (stereo not given in full) |  |  | inactive
76 | Cn1cnc([N+](=O)[O-])c1Sc1nnc(-c2cccnc2)n1C | > 794 | 6.61 µM | 
77 | COc1ccccc1C1C(Cl)C(=O)N1n1cnc2ccccc2c1=O (stereo not given) | > 52.5 | > 52.5 µM | 
78 | O=C(Nc1ccc(/C=C/c2ccc(NC(=O)c3cc(S(=O)(=O)O)c4cccnc4c3O)cc2S(=O)(=O)O)c(S(=O)(=O)O)c1)c1cc(S(=O)(=O)O)c2cccnc2c1O | 4.47 | 148 µM | 
79 | COP1(=S)OCC2OC(n3cc(C)c(=O)[nH]c3=O)CC2O1 (stereo not given) | > 100 | > 100 µM | 
80 | CC(CSC(=N)N)C(N)=O (stereo not given) | > 200 | > 200 µM | 
81 | CC1(C)Oc2ccc3c(=O)cc(-c4cccs4)oc3c2C1C(=O)O (stereo not given) | > 200 | > 200 µM | 
82 | COC1OC(CO)C2OC12 (stereo not given) | > 200 | > 200 µM | 
83 | COC(=O)/C=C(/C(=O)OC)c1c(C)cc2c(C)cc(C)cc(C)c1-2 | > 200 | 10.7 µM | 
84 | CC(=O)NC(C(=O)N1CCCC1C(=O)O)C(C)C (stereo not drawn) (Ac-Val-Pro-OH; configuration not given here) | > 200 | > 200 µM | 
85 | N#Cc1c(N)c2c(c(-c3ccccc3)c1-c1ccccc1)C(=O)N(Nc1ccccc1)C2=O | > 200 | 27.5 µM | 
86 | COc1cc(C2SCC(=O)N2c2ccc(-c3ccc(-n4c(-c5ccccc5)nc5ccccc5c4=O)cc3)cc2)ccc1O (stereo not given) | > 200 | 67.6 µM | 
